From patent US10053417B2, “Neprilysin inhibitors” (THERAVANCE BIOPHARMA R&D IP, LLC, priority 2013, dated 2018) come the findings set out here.

The target of this experiment is T1, human NEP (Homo sapiens, UniProt P08473).
T1 construct: purchased R&D Systems, Minneapolis, Minn; 1182-ZN
Nature of the experiment: In vitro enzyme inhibition assay, inhibitor potency at human NEP (Assay 1). In kind it is biochemical. The settings on record: recombinant human NEP; fluorogenic peptide substrate 10 μM; 37° C.; values given as ranges. As to the method: The inhibitory activities of compounds at human and rat neprilysin (EC 3.4.24.11; NEP) and human angiotensin converting enzyme (ACE) were determined using in vitro assays as described below.
Recombinant human NEP and recombinant human ACE were obtained commercially (R&D Systems, Minneapolis, Minn., catalog numbers 1182-ZN and 929-ZN, respectively). The fluorogenic peptide substrate Mca-D-Arg-Arg-Leu-Dap-(Dnp)-OH (Medeiros et al. (1997) Braz. J. Med. Biol. Res. 30:1157-62; Anaspec, San Jose, Calif.) and Abz-Phe-Arg-Lys(Dnp)-Pro-OH (Araujo et al. (2000) Biochemistry 39:8519-8525; Bachem, Torrance, Calif.) were used in the NEP and ACE assays respectively.
The assays were performed in 384-well white opaque plates at 37° C. using the fluorogenic peptide substrates at a concentration of 10 μM in Assay Buffer (NEP: 50 mM HEPES, pH 7.5, 100 mM NaCl, 0.01% polyethylene glycol sorbitan monolaurate (Tween-20), 10 μM ZnSO4; ACE: 50 mM HEPES, pH 7.5, 100 mM NaCl, 0.01% Tween-20, 1 μM ZnSO4).
Test compounds were assayed over the range of concentrations from […] to 20 μM. Test compounds were added to the enzymes and incubated for 30 minute at 37° C. prior to initiating the reaction by the addition of substrate. Reactions were terminated after 20 minutes of incubation at 37° C. by the addition of glacial acetic acid to a final concentration of 3.6% (v/v).
Plates were read on a fluorometer with excitation and emission wavelengths set to 320 nm and 405 nm, respectively. Inhibition constants were obtained by nonlinear regression of the data using the equation (GraphPad Software, Inc., San Diego, Calif.): ν=ν0/[1+(I/K′)] where ν is the reaction rate, ν0 is the uninhibited reaction rate, I is the inhibitor concentration and K′ is the apparent inhibition constant.
Compounds of the invention were tested in this assay and found to have pKi values at human NEP as follows.

T1 sequence (P08473 52-750 limits assumed): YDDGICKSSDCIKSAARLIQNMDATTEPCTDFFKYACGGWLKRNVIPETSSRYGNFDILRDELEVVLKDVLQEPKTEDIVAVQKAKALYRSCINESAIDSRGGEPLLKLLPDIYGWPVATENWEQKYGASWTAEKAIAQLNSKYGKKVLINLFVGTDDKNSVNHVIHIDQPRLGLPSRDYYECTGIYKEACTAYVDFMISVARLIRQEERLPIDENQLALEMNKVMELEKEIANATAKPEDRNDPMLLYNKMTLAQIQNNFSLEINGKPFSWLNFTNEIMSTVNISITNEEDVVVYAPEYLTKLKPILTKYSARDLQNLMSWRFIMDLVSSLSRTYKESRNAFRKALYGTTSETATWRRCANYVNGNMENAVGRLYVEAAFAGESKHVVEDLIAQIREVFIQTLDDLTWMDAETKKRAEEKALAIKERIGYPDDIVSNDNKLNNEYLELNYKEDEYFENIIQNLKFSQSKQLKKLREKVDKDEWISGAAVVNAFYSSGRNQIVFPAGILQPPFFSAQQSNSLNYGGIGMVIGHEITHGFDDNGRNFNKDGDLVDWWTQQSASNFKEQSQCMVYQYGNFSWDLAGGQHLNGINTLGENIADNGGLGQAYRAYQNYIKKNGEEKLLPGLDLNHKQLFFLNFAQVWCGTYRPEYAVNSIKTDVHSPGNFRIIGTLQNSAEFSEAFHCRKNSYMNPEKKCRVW

Regarding `O=C(N[C@H](Cc1ccc(-c2cccc(Cl)c2)cc1)C[C@@H](O)C(=O)O)C(=O)N1CCC(CCO)CC1` [Example 4-24, (2R,4R)-5-(3′-Chlorobiphenyl-4-yl)-2-hydroxy-4-{2-[4-(2-hydroxyethyl)-piperidin-1-yl]-2-oxo-acetylamino}pentanoic acid], the Ki was 0.001 to 0.01 µM.
Take `O=C(N[C@H](Cc1ccc(-c2cccc(Cl)c2)cc1)C[C@@H](O)C(=O)O)C(=O)N1CCCC[C@@H]1CO` [Example 4-25, (2R,4R)-5-(3′-Chlorobiphenyl-4-yl)-2-hydroxy-4-[2-((R)-2-hydroxymethyl-piperidin-1-yl)-2-oxo-acetylamino]pentanoic acid]: the Ki was at most 0.001 µM.
As to `O=C(N[C@H](Cc1ccc(-c2cccc(Cl)c2)cc1)C[C@@H](O)C(=O)O)C(=O)N1CCCC[C@H]1CO` [Example 4-26, (2R,4R)-5-(3′-Chlorobiphenyl-4-yl)-2-hydroxy-4-[2-((S)-2-hydroxymethyl-piperidin-1-yl)-2-oxo-acetylamino]pentanoic acid], the Ki is at most 0.001 µM.
`O=C(N[C@H](Cc1ccc(-c2cccc(Cl)c2)cc1)C[C@@H](O)C(=O)O)C(=O)N1CCC(C(=O)O)CC1` [Example 4-27, 1-[(1R,3R)-3-Carboxy-1-(3′-chlorobiphenyl-4-ylmethyl)-3-hydroxypropyl-aminooxalyl]-piperidine-4-carboxylic acid]: the Ki was 0.001 to 0.01 µM.
As to `O=C(N[C@H](Cc1ccc(-c2cccc(Cl)c2)cc1)C[C@@H](O)C(=O)O)C(=O)N1CCCC(C(=O)O)C1` (stereo partly drawn) [Example 4-28, 1-[(1R,3R)-3-Carboxy-1-(3′-chlorobiphenyl-4-ylmethyl)-3-hydroxypropyl-aminooxalyl]-piperidine-3-carboxylic acid], the Ki was 0.001 to 0.01 µM.
With `NC(=O)C1CCN(C(=O)C(=O)N[C@H](Cc2ccc(-c3cccc(Cl)c3)cc2)C[C@@H](O)C(=O)O)CC1` [Example 4-29, (2R,4R)-4-[2-(4-Carbamoyl-piperidin-1-yl)-2-oxo-acetylamino]-5-(3′-chlorobiphenyl-4-yl)-2-hydroxypentanoic acid], the Ki is 0.01 to 0.0316 µM.
As for `N#CC1CCCN(C(=O)C(=O)N[C@H](Cc2ccc(-c3cccc(Cl)c3)cc2)C[C@@H](O)C(=O)O)C1` (stereo partly drawn) [Example 4-30, (2R,4R)-5-(3′-Chlorobiphenyl-4-yl)-4-[2-(3-cyanopiperidin-1-yl)-2-oxo-acetylamino]-2-hydroxypentanoic acid], the Ki was 0.01 to 0.0316 µM.
With `O=C(N[C@H](Cc1ccc(-c2cccc(Cl)c2)cc1)C[C@@H](O)C(=O)O)C(=O)N1CCC(F)CC1` [Example 4-31, (2R,4R)-5-(3′-Chlorobiphenyl-4-yl)-4-[2-(4-fluoropiperidin-1-yl)-2-oxo-acetylamino]-2-hydroxypentanoic acid], the Ki was 0.01 to 0.0316 µM.
In the case of `O=C(N[C@H](Cc1ccc(-c2cccc(Cl)c2)cc1)C[C@@H](O)C(=O)O)C(=O)N1CCCC(CCO)C1` (stereo partly drawn) [Example 4-32, (2R,4R)-5-(3′-Chlorobiphenyl-4-yl)-2-hydroxy-4-{2-[3-(2-hydroxyethyl)-piperidin-1-yl]-2-oxo-acetylamino}pentanoic acid], the Ki is 0.01 to 0.0316 µM.
Take `O=C(N[C@H](Cc1ccc(-c2cccc(Cl)c2)cc1)C[C@@H](O)C(=O)O)C(=O)N1CCC[C@H](CO)C1` [Example 4-33, (2R,4R)-5-(3′-Chlorobiphenyl-4-yl)-2-hydroxy-4-[2-((S)-3-hydroxymethyl-piperidin-1-yl)-2-oxo-acetylamino]pentanoic acid]: the Ki is 0.001 to 0.01 µM.
For `CN1CCN(C(=O)C(=O)N[C@H](Cc2ccc(-c3cccc(Cl)c3)cc2)C[C@@H](O)C(=O)O)CC1` [Example 4-34, (2R,4R)-5-(3′-Chlorobiphenyl-4-yl)-2-hydroxy-4-[2-(4-methyl-piperazin-1-yl)-2-oxo-acetylamino]pentanoic acid], the Ki is 0.01 to 0.0316 µM.
On to `CCOC(=O)N1CCN(C(=O)C(=O)N[C@H](Cc2ccc(-c3cccc(Cl)c3)cc2)C[C@@H](O)C(=O)O)CC1` [Example 4-35, 4-[(1R,3R)-3-Carboxy-1-(3′-chlorobiphenyl-4-ylmethyl)-3-hydroxy-propylaminooxalyl]-piperazine-1-carboxylic acid ethyl ester], for which the Ki was 0.01 to 0.0316 µM.
On to `O=C(N[C@H](Cc1ccc(-c2cccc(Cl)c2)cc1)C[C@@H](O)C(=O)O)C(=O)N1CCN(C(=O)c2ccco2)CC1` [Example 4-36, (2R,4R)-5-(3′-Chlorobiphenyl-4-yl)-4-{2-[4-(furan-2-carbonyl)-piperazin-1-yl]-2-oxo-acetylamino}-2-hydroxypentanoic acid], for which the Ki is 0.001 to 0.01 µM.
Consider `N#Cc1ccccc1N1CCN(C(=O)C(=O)N[C@H](Cc2ccc(-c3cccc(Cl)c3)cc2)C[C@@H](O)C(=O)O)CC1` [Example 4-37, (2R,4R)-5-(3′-Chlorobiphenyl-4-yl)-4-{2-[4-(2-cyano-phenyl)-piperazin-1-yl]-2-oxo-acetylamino}-2-hydroxypentanoic acid], for which the inhibition constant (Ki) is 0.01 to 0.0316 µM.
As to `CCOCCN1CCN(C(=O)C(=O)N[C@H](Cc2ccc(-c3cccc(Cl)c3)cc2)C[C@@H](O)C(=O)O)CC1` [Example 4-38, (2R,4R)-5-(3′-Chlorobiphenyl-4-yl)-4-{2-[4-(2-ethoxy-ethyl)-piperazin-1-yl]-2-oxo-acetylamino}-2-hydroxypentanoic acid], the Ki was 0.01 to 0.0316 µM.
For the molecule `CS(=O)(=O)N1CCN(C(=O)C(=O)N[C@H](Cc2ccc(-c3cccc(Cl)c3)cc2)C[C@@H](O)C(=O)O)CC1` [Example 4-39, (2R,4R)-5-(3′-Chlorobiphenyl-4-yl)-2-hydroxy-4-[2-(4-methanesulfonyl-piperazin-1-yl)-2-oxo-acetylamino]pentanoic acid], the Ki was 0.01 to 0.0316 µM.
As to `CN(C)C(=O)N1CCN(C(=O)C(=O)N[C@H](Cc2ccc(-c3cccc(Cl)c3)cc2)C[C@@H](O)C(=O)O)CC1` [Example 4-40, (2R,4R)-5-(3′-Chlorobiphenyl-4-yl)-4-[2-(4-dimethylcarbamoyl-piperazin-1-yl)-2-oxo-acetylamino]-2-hydroxypentanoic acid], the Ki is 0.01 to 0.0316 µM.
Consider `COC(=O)N1CCN(C(=O)C(=O)N[C@H](Cc2ccc(-c3cccc(Cl)c3)cc2)C[C@@H](O)C(=O)O)CC1` [Example 4-41, 4-[(1R,3R)-3-Carboxy-1-(3′-chlorobiphenyl-4-ylmethyl)-3-hydroxy-propylaminooxalyl]-piperazine-1-carboxylic acid methyl ester], for which the Ki was 0.001 to 0.01 µM.
As to `C[C@@H]1COC[C@H](C)N1C(=O)C(=O)N[C@H](Cc1ccc(-c2cccc(Cl)c2)cc1)C[C@@H](O)C(=O)O` [Example 4-42, (2R,4R)-5-(3′-Chlorobiphenyl-4-yl)-4-[2-((3R,5S)-3,5-dimethylmorpholin-4-yl)-2-oxo-acetylamino]-2-hydroxypentanoic acid], the Ki was 0.01 to 0.0316 µM.
On to `O=C(N[C@H](Cc1ccc(-c2cccc(Cl)c2)cc1)C[C@@H](O)C(=O)O)C(=O)N1CCOC(CO)C1` (stereo partly drawn) [Example 4-43, (2R,4R)-5-(3′-Chlorobiphenyl-4-yl)-2-hydroxy-4-[2-(2-hydroxymethyl-morpholin-4-yl)-2-oxo-acetylamino]pentanoic acid], for which the Ki is 0.001 to 0.01 µM.
On to `O=C(N[C@H](Cc1ccc(-c2cccc(Cl)c2)cc1)C[C@@H](O)C(=O)O)C(=O)N1CCOCC1` [Example 4-44, (2R,4R)-5-(3′-Chlorobiphenyl-4-yl)-2-hydroxy-4-(2-morpholin-4-yl-2-oxo-acetylamino)pentanoic acid], for which the Ki was 0.001 to 0.01 µM.
